From ChEMBL document CHEMBL4196131 (J Med Chem, 2018)

Assays:
[1] = biological target: T1, Estrogen receptor (Homo sapiens) (UniProt P03372); assay: Agonist activity at human ERalpha expressed in HEK293T cells after 24 hrs by ERE-based dual luciferase reporter gene assay relative to E2; assay type: cell-based
T1 sequence (whole entry): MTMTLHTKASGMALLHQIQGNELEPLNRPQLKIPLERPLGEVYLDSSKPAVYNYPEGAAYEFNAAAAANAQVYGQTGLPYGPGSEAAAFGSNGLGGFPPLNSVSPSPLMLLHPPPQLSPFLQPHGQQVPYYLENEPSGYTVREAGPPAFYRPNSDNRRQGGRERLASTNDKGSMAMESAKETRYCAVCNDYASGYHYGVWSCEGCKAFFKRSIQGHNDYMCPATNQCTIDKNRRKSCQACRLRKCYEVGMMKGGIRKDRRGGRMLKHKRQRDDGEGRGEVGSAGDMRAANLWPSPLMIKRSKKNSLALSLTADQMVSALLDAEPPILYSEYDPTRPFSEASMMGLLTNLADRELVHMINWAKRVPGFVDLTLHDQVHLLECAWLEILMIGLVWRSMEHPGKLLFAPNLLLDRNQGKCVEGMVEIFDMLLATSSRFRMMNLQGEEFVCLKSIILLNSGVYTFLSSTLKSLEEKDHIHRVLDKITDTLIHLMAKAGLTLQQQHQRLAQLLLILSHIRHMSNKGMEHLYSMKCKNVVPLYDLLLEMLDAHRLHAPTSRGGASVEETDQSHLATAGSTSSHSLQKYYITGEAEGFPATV

Estrogen receptor beta [2] = biological target: T2, Estrogen receptor beta (Homo sapiens, UniProt Q92731); assay: Agonist activity at human ERbeta expressed in HEK293T cells after 24 hrs by ERE-based dual luciferase reporter gene assay; assay type: cell-based
Estrogen receptor beta [3] = biological target: T2, Estrogen receptor beta; assay: Agonist activity at human ERbeta expressed in HEK293T cells after 24 hrs by ERE-based dual luciferase reporter gene assay relative to E2; assay type: cell-based
Estrogen receptor [4] = biological target: T3, Estrogen receptor (Homo sapiens, UniProt P03372); assay: Antagonist activity at human ERalpha expressed in HEK293T cells after 24 hrs by ERE-based dual luciferase reporter gene assay; assay type: cell-based
T3 sequence (P03372 whole entry): T1 sequence (whole entry)

[5] = biological target: T1, Estrogen receptor (Homo sapiens); assay: Antagonist activity at human ERalpha expressed in HEK293T cells after 24 hrs by ERE-based dual luciferase reporter gene assay relative to E2; assay type: cell-based
Estrogen receptor beta [6] = biological target: T2, Estrogen receptor beta; assay: Antagonist activity at human ERbeta expressed in HEK293T cells after 24 hrs by ERE-based dual luciferase reporter gene assay relative to E2; assay type: cell-based; design: concentration or dose not given beside the values
Mus musculus = organism: Mus musculus; assay: Inhibition of NFkappaB in mouse RAW 264.7 cells assessed as reduction in LPS induced NO production at 10 uM after 24 hrs by Griess assay relative to control; assay type: cell-based
MCF7 = assay: cells; conditions: Homo sapiens, MCF7, 72 h
[7] = Inhibition of NFkappaB in mouse RAW 264.7 cells assessed as reduction in LPS induced NO production after 24 hrs by Griess assay; assay type: cell-based; conditions: RAW264.7, 24 h
Estrogen receptor [8] = biological target: T3, Estrogen receptor; assay: Agonist activity at human ERalpha expressed in HEK293T cells after 24 hrs by ERE-based dual luciferase reporter gene assay; assay type: cell-based
Estrogen receptor beta [9] = biological target: T2, Estrogen receptor beta; assay: Antagonist activity at human ERbeta expressed in HEK293T cells after 24 hrs by ERE-based dual luciferase reporter gene assay; assay type: cell-based
Estrogen receptor beta [10] = biological target: T2, Estrogen receptor beta; assay: Binding affinity to human ERbeta LBD after 2 hrs in absence of light by competitive fluorometric binding assay

T2 sequence (Q92731 whole entry): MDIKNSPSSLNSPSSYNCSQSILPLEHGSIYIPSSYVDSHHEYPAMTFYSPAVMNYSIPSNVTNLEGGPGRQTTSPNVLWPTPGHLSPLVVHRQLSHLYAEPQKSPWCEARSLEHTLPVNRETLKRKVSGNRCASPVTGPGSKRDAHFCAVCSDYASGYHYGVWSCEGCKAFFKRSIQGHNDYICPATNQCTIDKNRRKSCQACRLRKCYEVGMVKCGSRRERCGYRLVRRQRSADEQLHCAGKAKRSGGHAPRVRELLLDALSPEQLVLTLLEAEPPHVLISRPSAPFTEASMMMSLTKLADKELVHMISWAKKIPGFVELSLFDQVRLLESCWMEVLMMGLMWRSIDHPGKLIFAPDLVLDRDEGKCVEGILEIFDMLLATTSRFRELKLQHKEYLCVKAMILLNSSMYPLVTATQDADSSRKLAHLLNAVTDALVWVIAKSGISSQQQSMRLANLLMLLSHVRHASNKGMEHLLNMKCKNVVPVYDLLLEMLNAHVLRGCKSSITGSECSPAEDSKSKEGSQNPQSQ

Row | Structure (SMILES) | Efficacy [1] [%] | EC50 (Estrogen receptor beta [2]) [nM] | Efficacy (Estrogen receptor beta [3]) [%] | IC50 (Estrogen receptor [4]) [nM] | Efficacy [5] [%] | Efficacy (Estrogen receptor beta [6]) [%] | inhibition (Mus musculus) [%] | IC50 (MCF7) [nM] | IC50 [7] [nM] | EC50 (Estrogen receptor [8]) [nM] | IC50 (Estrogen receptor beta [9]) [nM] | Ki (Estrogen receptor beta [10]) [nM]
1 | O=S(=O)(Oc1ccc(O)cc1)C1CC2OC1C(c1ccc(/C=C/c3cc(O)cc(O)c3)cc1)=C2c1ccc(O)cc1 (configuration not stated) | 12 | 355 | 51 | 54 | 8 | 88 | 41 | 14100 |  |  |  | 
2 | O=S(=O)(Oc1ccc(/C=C/c2cc(O)cc(O)c2)cc1)C1CC2OC1C(c1ccc(O)cc1)=C2c1ccc(O)cc1 (configuration not stated) | -9 | 194 | 51 | 19 | 7 | 99 | 81 | 10500 | 930 |  |  | 
3 | Cc1ccc(OS(=O)(=O)C2CC3OC2C(c2ccc(/C=C/c4cc(O)cc(O)c4)cc2)=C3c2ccc(O)cc2)cc1 (configuration not stated) | 77 | 780 | 29 | 2 | 1 | 42 | 42.3 | 9200 | 12500 | 71 | 69 | 
4 | COc1cc(/C=C/c2ccc(OS(=O)(=O)[C@@H]3C[C@@H]4O[C@H]3C(c3ccc(O)cc3)=C4c3ccc(O)cc3)cc2)cc(OC)c1 |  |  |  | 3 | 11 |  |  | 2310 | 300 |  |  | 
5 | O=S(=O)(Oc1cccc(O)c1)C1CC2OC1C(c1ccc(/C=C/c3cc(O)cc(O)c3)cc1)=C2c1ccc(O)cc1 (configuration not stated) | 5 |  | 17 | 6020 | 17 | 106 | 12.3 | 23000 | > 100000 |  |  | 
6 | O=S(=O)(Oc1ccccc1)C1CC2OC1C(c1ccc(/C=C/c3ccccc3)cc1)=C2c1ccc(O)cc1 (configuration not stated) | 13 | 2780 | 48 | 1030 | 34 | 83 | 40.4 | 25200 | 9700 |  |  | 
7 | CC/C(=C(\c1ccc(O)cc1)c1ccc(OCCN(C)C)cc1)c1ccccc1 [AFIMOXIFENE] |  |  |  |  |  |  | 21.5 | 9500 | > 100000 |  |  | 
8 | O=S(=O)(Oc1cccc(Br)c1)C1CC2OC1C(c1ccc(/C=C/c3cc(O)cc(O)c3)cc1)=C2c1ccc(O)cc1 (configuration not stated) | 3 |  | -2 | 2420 | 21 | 65 | 60.9 | 19800 | 2530 |  |  | 50
9 | O=S(=O)(Oc1ccc(Cl)cc1)C1CC2OC1C(c1ccc(/C=C/c3cc(O)cc(O)c3)cc1)=C2c1ccc(O)cc1 (configuration not stated) | -5 |  | 7 | 62 | 11 | 33 | 62.1 | 17900 | 6500 |  | 1020 | 
10 | O=S(=O)(Oc1cccc(/C=C/c2cc(O)cc(O)c2)c1)C1CC2OC1C(c1ccc(O)cc1)=C2c1ccc(O)cc1 (configuration not stated) | 15 | 749 | 62 | 1410 | 29 | 93 | 24.8 | 17800 | 16700 |  |  | 4580
11 | Cc1ccccc1OS(=O)(=O)C1CC2OC1C(c1ccc(/C=C/c3cc(O)cc(O)c3)cc1)=C2c1ccc(O)cc1 (configuration not stated) | 84 | 242 | 36 | 10 | 36 | 100 | 39.1 | 55800 | 28400 | 1250 |  | 
12 | COc1cc(/C=C/c2cccc(OS(=O)(=O)C3CC4OC3C(c3ccc(O)cc3)=C4c3ccc(O)cc3)c2)cc(OC)c1 (configuration not stated) | 13 |  | 47 | 738 | 47 | 86 | 55.1 | 11500 | 6370 |  |  | 
13 | O=S(=O)(Oc1ccc(-c2ccccc2)cc1)C1CC2OC1C(c1ccc(/C=C/c3cc(O)cc(O)c3)cc1)=C2c1ccc(O)cc1 (configuration not stated) | 41 | 43 | 82 |  | 68 | 97 | 43 | 7800 | 18700 | 4930 |  | 
14 | O=S(=O)(Oc1ccc(Br)cc1)C1CC2OC1C(c1ccc(/C=C/c3cc(O)cc(O)c3)cc1)=C2c1ccc(O)cc1 (configuration not stated) | -9 |  | 10 | 61 | 15 | 43 | 22 | 16900 | 16500 |  | 2530 | 
15 | O=S(=O)(Oc1cccc2ccccc12)C1CC2OC1C(c1ccc(/C=C/c3cc(O)cc(O)c3)cc1)=C2c1ccc(O)cc1 (configuration not stated) | -10 | 222 | 65 | 49 | -4 | 71 | 44.4 | 11000 | 3290 |  |  | 
16 | COc1cc(/C=C/c2ccc(OS(=O)(=O)[C@H]3C[C@H]4O[C@@H]3C(c3ccc(O)cc3)=C4c3ccc(O)cc3)cc2)cc(OC)c1 |  |  |  | 27 | 72 |  |  | 18000 | 480 |  |  | 
17 | COc1cc(/C=C/c2ccc(C3=C(c4ccc(O)cc4)C4CC(S(=O)(=O)Oc5cccc(OC)c5)C3O4)cc2)cc(OC)c1 (configuration not stated) | -2 | 941 | 37 |  | 32 | 39 | 60.1 | 77100 | 1260 |  | 646 | 
18 | CCc1ccccc1OS(=O)(=O)C1CC2OC1C(c1ccc(/C=C/c3cc(OC)cc(OC)c3)cc1)=C2c1ccc(O)cc1 (configuration not stated) | 18 | 9 | 20 | 3 | 37 | 72 | 65.4 | 49800 | 790 | 146 |  | 
19 | O=S(=O)(Oc1ccccc1)C1CC2OC1C(c1ccc(/C=C/c3cc(O)cc(O)c3)cc1)=C2c1ccc(O)cc1 (configuration not stated) | 29 | 658 | 37 | 428 | 4 | 76 | 70.9 | 20100 | 6020 |  |  | 
20 | O=S(=O)(Oc1cccc(C(F)(F)F)c1)C1CC2OC1C(c1ccc(/C=C/c3cc(O)cc(O)c3)cc1)=C2c1ccc(O)cc1 (configuration not stated) | -7 | 1730 | 29 | 72 | -10 | 31 | 41.6 | 11500 | 14600 |  | 42 | 
21 | COc1cccc(OS(=O)(=O)C2CC3OC2C(c2ccc(/C=C/c4cc(O)cc(O)c4)cc2)=C3c2ccc(O)cc2)c1 (configuration not stated) | 55 | 3 | 52 | 48 | 36 | 102 | 42.3 | 10400 | 11100 |  |  | 
22 | Cc1cccc(OS(=O)(=O)C2CC3OC2C(c2ccc(/C=C/c4cc(O)cc(O)c4)cc2)=C3c2ccc(O)cc2)c1 (configuration not stated) | 22 |  | -3 | 947 | 2 | 46 | 68.4 | 16300 | 2410 |  | 3110 | 
23 | O=S(=O)(Oc1ccc(F)cc1)C1CC2OC1C(c1ccc(/C=C/c3cc(O)cc(O)c3)cc1)=C2c1ccc(O)cc1 (configuration not stated) | 16 | 276 | 45 | 5 | 7 | 98 | 71.9 | 13100 | 8880 |  |  | 
24 | O=S(=O)(Oc1ccc(/C=C/c2ccccc2)cc1)C1CC2OC1C(c1ccc(O)cc1)=C2c1ccc(O)cc1 (configuration not stated) | 6 | 31 | 25 | 149 | 54 | 74 | 72.4 | 8300 | 2230 |  |  | 
25 | O=S(=O)(Oc1cccc(Cl)c1)C1CC2OC1C(c1ccc(/C=C/c3cc(O)cc(O)c3)cc1)=C2c1ccc(O)cc1 (configuration not stated) | 16 | 2 | 60 | 932 | 4 | 91 | 62.1 | 12900 | 2140 |  |  | 
